From PubChem BioAssay AID248 (DTP/NCI, 2004)
Inconclusive results and toxic doses are left out. Rule as the data show it: active = T/C of 150% or more; inactive = T/C below 125%.

Tested on: L1210 leukemia ip in BDF1 mice, survival T/C
Assay: NCI In Vivo Anticancer Drug Screen. Data for tumor model L1210 Leukemia (intraperitoneal) in B6D2F1 (BDF1) mice
Conditions: endpoint: mean survival time, higher = longer survival
Procedure, shortened: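 Mice bearing the transplanted tumor received compound or vehicle. Survival of the treated group was divided by that of the vehicle-treated control group to give the ratio.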

[1] = dose: 25.0 mg/kg/injection, schedule: Q01DX009 (ip), vehicle: saline with Tween-80
[2] = dose: 100.0 mg/kg/injection, schedule: Q01DX009 (ip), vehicle: saline
[3] = dose: 200.0 mg/kg/injection, schedule: Q01DX009 (ip), vehicle: saline
[4] = dose: 400.0 mg/kg/injection, schedule: Q01DX009 (ip), vehicle: saline

Measured: T/C

CCCCNC(=O)Nc1ccccc1OCC
inactive: dose: 100.0 mg/kg/injection, schedule: Q01DX009 (ip), vehicle: Klucel (hydroxypropylcellulose) (HPC) 93 % of control | dose: 100.0 mg/kg/injection, schedule: Q04DX003 (ip), vehicle: Klucel (hydroxypropylcellulose) (HPC) 94 % of control | dose: 200.0 mg/kg/injection, schedule: Q01DX009 (ip), vehicle: Klucel (hydroxypropylcellulose) (HPC) 92 % of control | dose: 200.0 mg/kg/injection, schedule: Q04DX003 (ip), vehicle: Klucel (hydroxypropylcellulose) (HPC) 104 % of control | dose: 400.0 mg/kg/injection, schedule: Q01DX009 (ip), vehicle: Klucel (hydroxypropylcellulose) (HPC) 97 % of control | dose: 400.0 mg/kg/injection, schedule: Q04DX003 (ip), vehicle: Klucel (hydroxypropylcellulose) (HPC) 94 % of control

Cc1ccc(Cl)cc1NC(=O)CCc1ccccc1
inactive: dose: 100.0 mg/kg/injection, schedule: Q04DX002 (ip), vehicle: Klucel (hydroxypropylcellulose) (HPC) 91 % of control | dose: 200.0 mg/kg/injection, schedule: Q04DX002 (ip), vehicle: Klucel (hydroxypropylcellulose) (HPC) 94 % of control | dose: 400.0 mg/kg/injection, schedule: Q04DX002 (ip), vehicle: Klucel (hydroxypropylcellulose) (HPC) 91 % of control

Nc1c(N=Nc2cccc([N+](=O)[O-])c2)c(S(=O)(=O)O)cc2cc(S(=O)(=O)O)c(N=Nc3ccc(-c4ccc(N=Nc5cc(S(=O)(=O)O)c6ccccc6c5O)cc4)cc3)c(O)c12
inactive: dose: 50.0 mg/kg/injection, schedule: Q01DX010 (ip), vehicle: saline 94 % of control | dose: 100.0 mg/kg/injection, schedule: Q01DX010 (ip), vehicle: saline 100 % of control | dose: 200.0 mg/kg/injection, schedule: Q01DX010 (ip), vehicle: saline 92 % of control

O=N[O-].O=N[O-].[Co].[NH-]CCN(CC[NH-])CC[NH-]
inactive: dose: 50.0 mg/kg/injection, schedule: Q01DX001 (ip), vehicle: saline 108 % of control

NOCC(=O)O
inactive: dose: 5.0 mg/kg/injection, schedule: Q01DX Z (ip), vehicle: saline 112 % of control | dose: 8.0 mg/kg/injection, schedule: Q01DX Z (ip), vehicle: saline 97 % of control | dose: 12.0 mg/kg/injection, schedule: Q01DX Z (ip), vehicle: saline 103 % of control | dose: 12.5 mg/kg/injection, schedule: Q01DX001 (ip), vehicle: carboxymethylcellulose (CMC) 106 % of control | dose: 18.0 mg/kg/injection, schedule: Q01DX Z (ip), vehicle: saline 103 % of control | dose: 25.0 mg/kg/injection, schedule: Q01DX001 (ip), vehicle: carboxymethylcellulose (CMC) 97 % of control | dose: 50.0 mg/kg/injection, schedule: Q01DX001 (ip), vehicle: carboxymethylcellulose (CMC) 95 % of control

O=C(C[n+]1ccccc1)N/N=C/c1ccccc1Cl
inactive: [1] 98 % of control | dose: 50.0 mg/kg/injection, schedule: Q01DX009 (ip), vehicle: saline with Tween-80 98 % of control | dose: 100.0 mg/kg/injection, schedule: Q01DX009 (ip), vehicle: saline with Tween-80 100 % of control

c1ccc2sc(SCCSc3nc4ccccc4s3)nc2c1
inactive: dose: 6.25 mg/kg/injection, schedule: Q01DX009 (ip), vehicle: saline with Tween-80 93 % of control | dose: 6.25 mg/kg/injection, schedule: Q04DX002 (ip), vehicle: saline with Tween-80 100 % of control | dose: 12.5 mg/kg/injection, schedule: Q01DX009 (ip), vehicle: saline with Tween-80 97 % of control | dose: 12.5 mg/kg/injection, schedule: Q04DX002 (ip), vehicle: saline with Tween-80 89 % of control | [1] 95 % of control | dose: 25.0 mg/kg/injection, schedule: Q04DX002 (ip), vehicle: saline with Tween-80 89 % of control

O=C1OC(=O)c2cccc3cccc1c23
inactive: dose: 50.0 mg/kg/injection, schedule: Q01DX001 (ip), vehicle: Klucel (hydroxypropylcellulose) (HPC) 98 % of control | dose: 100.0 mg/kg/injection, schedule: Q01DX001 (ip), vehicle: Klucel (hydroxypropylcellulose) (HPC) 97 % of control | dose: 200.0 mg/kg/injection, schedule: Q01DX001 (ip), vehicle: Klucel (hydroxypropylcellulose) (HPC) 94 % of control | dose: 400.0 mg/kg/injection, schedule: Q01DX001 (ip), vehicle: Klucel (hydroxypropylcellulose) (HPC) 111 % of control

ClCCN(CCCl)CCn1cnc2c(SCc3ccccc3)ncnc21
inactive: dose: 13.0 mg/kg/injection, schedule: Q01DX Z (ip), vehicle: carboxymethylcellulose (CMC) 103 % of control | dose: 20.0 mg/kg/injection, schedule: Q01DX Z (ip), vehicle: carboxymethylcellulose (CMC) 108 % of control | dose: 30.0 mg/kg/injection, schedule: Q01DX Z (ip), vehicle: carboxymethylcellulose (CMC) 105 % of control | dose: 45.0 mg/kg/injection, schedule: Q01DX Z (ip), vehicle: carboxymethylcellulose (CMC) 110 % of control

O=CNCCNC=O
inactive: [2] 102 % of control | [3] 104 % of control | [4] 98 % of control

C=CCC1(OC(C)=O)CCN(C)CC1
inactive: dose: 75.0 mg/kg/injection, schedule: Q01DX001 (ip), vehicle: saline 113 % of control

CCOC(=O)NCC(CCN1CCCC1)(c1cccc2ccccc12)C(C)C (configuration not stated)
inactive: dose: 12.5 mg/kg/injection, schedule: Q01DX009 (ip), vehicle: Klucel (hydroxypropylcellulose) (HPC) 104 % of control | dose: 12.5 mg/kg/injection, schedule: Q04DX003 (ip), vehicle: Klucel (hydroxypropylcellulose) (HPC) 87 % of control | dose: 25.0 mg/kg/injection, schedule: Q01DX009 (ip), vehicle: Klucel (hydroxypropylcellulose) (HPC) 102 % of control | dose: 50.0 mg/kg/injection, schedule: Q01DX009 (ip), vehicle: Klucel (hydroxypropylcellulose) (HPC) 101 % of control | dose: 50.0 mg/kg/injection, schedule: Q04DX003 (ip), vehicle: Klucel (hydroxypropylcellulose) (HPC) 95 % of control

CSc1ccc(OC(C)=O)cc1C
inactive: dose: 100.0 mg/kg/injection, schedule: Q01DX001 (ip), vehicle: saline 106 % of control | dose: 200.0 mg/kg/injection, schedule: Q01DX001 (ip), vehicle: saline 98 % of control | dose: 400.0 mg/kg/injection, schedule: Q01DX001 (ip), vehicle: saline 96 % of control

O/N=C/c1nc2ccccc2[nH]1
inactive: dose: 75.0 mg/kg/injection, schedule: Q01DX001 (ip), vehicle: other 90 % of control | dose: 150.0 mg/kg/injection, schedule: Q01DX001 (ip), vehicle: other 90 % of control | dose: 300.0 mg/kg/injection, schedule: Q01DX001 (ip), vehicle: other 95 % of control

NC(N)=Nc1nc2ccc([N+](=O)[O-])cc2[nH]1
inactive: [2] 93 % of control | dose: 100.0 mg/kg/injection, schedule: Q04DX003 (ip), vehicle: saline 90 % of control | [3] 91 % of control | dose: 200.0 mg/kg/injection, schedule: Q04DX003 (ip), vehicle: saline 94 % of control | [4] 96 % of control | dose: 400.0 mg/kg/injection, schedule: Q04DX003 (ip), vehicle: saline 94 % of control

CC(=O)NC1C(O)C(NC(C)=O)C(OC(C)=O)C(OC(C)=O)C1OC(C)=O (configuration not stated)
inactive: dose: 100.0 mg/kg/injection, schedule: Q04DX003 (ip), vehicle: saline with Tween-80 95 % of control | dose: 200.0 mg/kg/injection, schedule: Q04DX003 (ip), vehicle: saline with Tween-80 101 % of control | dose: 400.0 mg/kg/injection, schedule: Q04DX003 (ip), vehicle: saline with Tween-80 94 % of control

NC(=O)c1cn[nH]c1/N=N/N(CCF)CCF
inactive: dose: 9.5 mg/kg/injection, schedule: Q01DX001 (ip), vehicle: other 111 % of control | dose: 10.0 mg/kg/injection, schedule: Q01DX009 (ip), vehicle: other 119 % of control | dose: 19.0 mg/kg/injection, schedule: Q01DX001 (ip), vehicle: other 124 % of control

CN1CCN(CCNc2ccc(CO)c3sc4ccccc4c(=O)c23)CC1
inactive: dose: 31.25 mg/kg/injection, schedule: Q01DX009 (ip), vehicle: Klucel (hydroxypropylcellulose) (HPC) 100 % of control | dose: 62.5 mg/kg/injection, schedule: Q01DX009 (ip), vehicle: Klucel (hydroxypropylcellulose) (HPC) 97 % of control | dose: 125.0 mg/kg/injection, schedule: Q01DX009 (ip), vehicle: Klucel (hydroxypropylcellulose) (HPC) 105 % of control
